Data published in US20170099837A1, “EXTRACTS OF AGRICULTURAL HUSKS USED TO MODIFY THE METABOLISM OF PLANTS” (priority 2014, published 2017).

Legend:
Daphnia magna = assay: 48-h static toxicity test on Daphnia magna; conditions: in vivo
Description: In contrast, pure nitrated phenolic compounds such as p-nitrofenol show toxicities up to 125 times higher, measured as mean lethal concentration (CL50) over Daphnia magna or as concentration without observed effect (CSEO by its Spanish acronym).
The study was carried out to determine composition toxicity on Daphnia magna in a 48-h static test. Test concentrations were determined through a range test. Concentrations used for the definitive test were 62.5, 125, 250, 500 and 1000 mg/L, administered to the system, Daphnia magna, in fresh water. Three copies of 10 organisms were used for each concentration test. Control containers were used, placing 10 daphnides in fresh water without the composition. Dissolved oxygen, temperature, conductivity and pH were assessed at the beginning of the test and after each dose. Observations for immobility were made daily in a test chamber. The test ended after 48±1 hour of exposure. The concentration without observed effect (CSEO) of the composition was 250 mg/L and CE50 (Mean Effective Concentration) was determined higher than 1000 mg/L.

pepper bell seedlings = assay: Protection of pepper bell seedlings exposed to saline stress
Description: Protection offered by the composition in plants exposed to saline stress was observed through an assay with pepper bell seedlings, cultivar “npiter”. These seedlings were placed in germination plates with peat-moss as substrate and kept during a 40-day period and then transferred to 5-L pots. Adaptation period before treatment commencement consisted of daily irrigation during 10 days reaching saturation by a nutrient formulation based on 100-50-100 N-P-K at 1 mg/L concentrations. Used treatments in the assay were prepared in 100 L containers where NaCl was added until reaching a concentration of 25 mM/L, plus nutrients based on Hoagland formula (50% of its concentration). Irrigation frequency with this nutrient solution was every day, applying a 350 cm^3 volume per plant during the whole assay. Composition application was carried out once per week at a dose of […]. Based on a daily irrigation volume of 350 mL/plant, weekly application of the composition was 0.6 cm^3 per 7 days in 350 cm^3 of irrigation water per plant.

[1] = 25 mM NaCl irrigation, composition 0.6 mL per plant per day applied weekly

| SMILES | toxicity relative to the composition, measured as mean lethal concentration (CL50) over Daphnia magna or as CSEO (Daphnia magna) | Foliar area (cm^2/plant) (pepper bell seedlings; [1]) | Leaves per plant (pepper bell seedlings; [1]) | reduction of number of leaves per plant (pepper bell seedlings; treatment with 25 mM NaCl) |
| --- | --- | --- | --- | --- |
| O=[N+]([O-])c1ccc(O)cc1 [p-nitrofenol] | up to 125 times higher | – | – | – |
| [Cl-].[Na+] [25 mM NaCl, NaCl] | – | 1050 cm^2/plant | 50 | about 27% |
